Data from ChEMBL document CHEMBL5608207, “Development of narrow-spectrum topoisomerase-targeting antibacterials against mycobacteria” (Eur J Med Chem, 2024).
≈ marks a conversion by molar mass, not a printed value. Calls of active or inactive are those of the source. The calls are words filed in the database; no cut-off is given here.

Legend:
[1] = tested on: Mycobacterium tuberculosis; assay: Antimycobacterial activity against Mycobacterium tuberculosis H37Rv ATCC 25618 assessed as reduction in viability incubated for 6 days by resazurin reduction microplate assay; assay type: functional; conditions: H37Rv ATCC 25618, 144 h, time 6 day
[2] = tested on: Mycobacteroides abscessus; assay: Antimycobacterial activity against Mycobacterium abscessus RIVM incubated for 1 day by resazurin reduction microplate assay; assay type: functional; conditions: 24 h
[3] = tested on: Mycolicibacterium smegmatis; assay: Antimycobacterial activity against Mycobacterium smegmatis MC2 incubated for 2 days by resazurin reduction microplate assay; assay type: functional; conditions: MC2, 48 h, time 2 day
[4] = tested on: Mycobacterium tuberculosis; assay: (§1) Antimycobacterial activity against GFP-expressing Mycobacterium tuberculosis H37Rv infected in PMA-treated THP-1 cells assessed as increase in number of surviving macrophages at 10 to 30 uM pre-infected for 3 hrs prior to gentamycin addition for 1 hr followed by washout and compound addition measured after 4 days by fluorescence microscopic analysis; assay type: functional, organism-based; conditions: dose 10-30 µM, time 4.0 day
[5] = tested on: Pseudomonas aeruginosa; assay: Antibacterial activity against Pseudomonas aeruginosa ATCC 27853 incubated for 18 hrs by serial broth microdilution method; assay type: functional
[6] = Inhibition of Mycobacterium smegmatis DNA gyrase using […] DNA as substrate incubated for 30 mins by gel based method; parameters: species or system Mycolicibacterium smegmatis
[7] = tested on: Anaerostipes hadrus; assay: Antibacterial activity against Anaerostipes hadrus DSM 3319 measured at 15 mins interval for 24 hrs by broth microdilution method; assay type: functional
[8] = tested on: Escherichia coli; assay: Antibacterial activity against Escherichia coli ATCC 25922 harboring deltaTolC mutant incubated for 18 hrs by serial broth microdilution method; assay type: functional
[9] = target: DNA topoisomerase 2-alpha (Homo sapiens) (UniProt P11388); assay: Inhibition of human DNA topoisomerase II alpha assessed as residual activity at 10 uM using supercoiled pNO1 plasmid as substrate incubated for 30 mins by diamond dye staining based fluorescence microplate reader assay relative to control
DNA topoisomerase 2-alpha (Homo sapiens), sequence (P11388 whole entry): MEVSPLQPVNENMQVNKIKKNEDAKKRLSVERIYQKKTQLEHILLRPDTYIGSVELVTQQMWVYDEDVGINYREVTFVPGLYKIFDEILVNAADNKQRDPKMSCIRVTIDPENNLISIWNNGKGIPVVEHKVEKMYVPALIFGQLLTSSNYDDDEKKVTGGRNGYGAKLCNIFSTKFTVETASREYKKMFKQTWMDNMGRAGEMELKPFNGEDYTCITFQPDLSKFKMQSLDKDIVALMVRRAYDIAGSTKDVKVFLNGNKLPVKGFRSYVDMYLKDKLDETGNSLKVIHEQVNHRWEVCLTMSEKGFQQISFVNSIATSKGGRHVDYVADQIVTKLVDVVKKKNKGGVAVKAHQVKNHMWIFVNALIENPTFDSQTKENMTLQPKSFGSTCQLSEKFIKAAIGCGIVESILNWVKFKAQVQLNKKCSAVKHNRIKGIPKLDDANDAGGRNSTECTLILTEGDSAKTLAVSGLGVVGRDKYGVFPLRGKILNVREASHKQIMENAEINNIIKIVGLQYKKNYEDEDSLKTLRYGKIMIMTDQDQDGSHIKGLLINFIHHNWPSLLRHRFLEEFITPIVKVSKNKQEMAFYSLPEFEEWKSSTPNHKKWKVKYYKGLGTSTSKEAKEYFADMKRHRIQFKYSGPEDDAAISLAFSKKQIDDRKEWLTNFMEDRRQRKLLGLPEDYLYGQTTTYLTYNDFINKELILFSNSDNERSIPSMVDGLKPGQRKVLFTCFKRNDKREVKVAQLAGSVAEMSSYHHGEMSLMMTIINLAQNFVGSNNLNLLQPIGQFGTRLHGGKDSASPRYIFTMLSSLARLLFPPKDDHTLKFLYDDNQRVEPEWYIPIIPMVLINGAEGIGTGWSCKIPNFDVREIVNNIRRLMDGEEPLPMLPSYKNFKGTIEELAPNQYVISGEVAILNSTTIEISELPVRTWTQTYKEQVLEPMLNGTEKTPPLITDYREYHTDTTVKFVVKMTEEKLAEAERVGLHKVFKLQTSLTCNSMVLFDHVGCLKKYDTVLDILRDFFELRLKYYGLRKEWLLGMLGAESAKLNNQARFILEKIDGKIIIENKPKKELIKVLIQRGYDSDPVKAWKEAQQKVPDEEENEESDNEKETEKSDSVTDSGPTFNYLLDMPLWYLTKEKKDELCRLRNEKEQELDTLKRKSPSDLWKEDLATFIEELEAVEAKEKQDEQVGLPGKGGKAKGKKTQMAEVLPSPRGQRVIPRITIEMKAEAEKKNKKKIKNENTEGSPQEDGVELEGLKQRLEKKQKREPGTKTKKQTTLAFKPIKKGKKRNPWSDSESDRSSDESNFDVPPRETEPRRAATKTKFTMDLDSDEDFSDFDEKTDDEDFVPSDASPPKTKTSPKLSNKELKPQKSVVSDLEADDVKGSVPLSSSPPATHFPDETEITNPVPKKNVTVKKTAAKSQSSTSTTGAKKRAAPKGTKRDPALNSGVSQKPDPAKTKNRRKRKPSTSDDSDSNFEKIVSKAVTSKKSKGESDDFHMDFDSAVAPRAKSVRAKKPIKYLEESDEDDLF

[10] = tested on: THP-1; assay: Cytotoxicity against replicating human THP-1 cells upto 40 uM; assay type: toxicity, cell-based; conditions: thp-1, 40 µM
[11] = target: T1, hERG (KCNH2) (Homo sapiens, UniProt Q12809); assay: Inhibition of human ERG expressed in HEK293 cells at 50 uM by whole-cell patch clamp method relative to control; assay type: toxicity, cell-based; conditions: HEK293 cells that express hERG
T1 sequence (Q12809 whole entry): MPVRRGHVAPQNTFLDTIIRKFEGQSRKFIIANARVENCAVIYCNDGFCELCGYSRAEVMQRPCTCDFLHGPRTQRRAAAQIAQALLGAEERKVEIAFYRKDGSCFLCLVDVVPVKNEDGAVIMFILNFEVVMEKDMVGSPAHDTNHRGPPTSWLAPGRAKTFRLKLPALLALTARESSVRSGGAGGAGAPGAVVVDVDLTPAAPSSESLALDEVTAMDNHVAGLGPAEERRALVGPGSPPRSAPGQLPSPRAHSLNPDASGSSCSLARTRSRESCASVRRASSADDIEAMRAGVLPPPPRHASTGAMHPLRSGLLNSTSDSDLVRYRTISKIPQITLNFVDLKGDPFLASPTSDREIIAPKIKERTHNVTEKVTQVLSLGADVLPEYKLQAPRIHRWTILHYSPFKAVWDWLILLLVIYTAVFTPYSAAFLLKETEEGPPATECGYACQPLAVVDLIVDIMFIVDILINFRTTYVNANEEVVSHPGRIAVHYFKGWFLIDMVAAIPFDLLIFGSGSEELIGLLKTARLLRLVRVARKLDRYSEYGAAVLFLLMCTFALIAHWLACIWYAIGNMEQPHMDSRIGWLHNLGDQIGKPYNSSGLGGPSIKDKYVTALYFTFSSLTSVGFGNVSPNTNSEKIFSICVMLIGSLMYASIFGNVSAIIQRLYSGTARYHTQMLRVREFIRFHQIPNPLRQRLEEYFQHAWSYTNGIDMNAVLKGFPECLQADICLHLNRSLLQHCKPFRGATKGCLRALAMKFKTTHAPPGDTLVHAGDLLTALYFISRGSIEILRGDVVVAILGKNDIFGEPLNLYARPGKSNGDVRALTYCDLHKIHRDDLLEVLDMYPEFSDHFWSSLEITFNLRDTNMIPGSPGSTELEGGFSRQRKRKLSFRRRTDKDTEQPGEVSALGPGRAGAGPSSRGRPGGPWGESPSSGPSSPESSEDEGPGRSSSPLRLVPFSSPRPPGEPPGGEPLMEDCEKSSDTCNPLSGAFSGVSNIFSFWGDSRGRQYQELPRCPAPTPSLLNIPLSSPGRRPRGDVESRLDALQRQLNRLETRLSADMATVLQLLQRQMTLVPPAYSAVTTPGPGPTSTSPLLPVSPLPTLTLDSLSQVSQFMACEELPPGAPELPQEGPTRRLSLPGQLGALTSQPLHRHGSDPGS

[12] = target: DNA gyrase (Escherichia coli, UniProt P0AES4+P0AES6); assay: Inhibition of Escherichia coli DNA gyrase using relaxed pNO1 as substrate measured after 30 mins by SybrGOLD staining based fluorescence microplate reader analysis; assay type: protein-complex assay
[13] = tested on: Mycobacterium tuberculosis; assay: as §1, with “bacterial viability” for “increase in number of surviving macrophages at 10 to 30 uM”; assay type: functional, organism-based; conditions: dose 1-30 µM, time 4.0 day
[14] = Kinetic solubility of compound in PBS at 100 uM incubated for 20 hrs in shaker by LC-MS/MS analysis; assay type: physicochemical; conditions: read-out: Kinetic_solubility
[15] = tested on: MCF7; assay: Cytotoxicity against human MCF7 cells assessed as residual activity at 50 uM incubated for 72 hrs by MTS assay; assay type: functional
[16] = Inhibition of Escherichia coli DNA topoisomerase IV […] using supercoiled pNO1 as substrate measured after 30 mins by SybrGOLD staining based fluorescence microplate reader analysis
[17] = tested on: Segatella copri; assay: Antibacterial activity against Prevotella copri DSM 18205 measured at 15 mins interval for 24 hrs by broth microdilution method; assay type: functional
[18] = Acute toxicity in zebrafish embryo assessed as effect on embryo development upto 5 mM measured for 4 days; parameters: species or system Danio rerio; conditions: in vivo, 96 h, 5000 µM, time 4 day
[19] = tested on: Klebsiella pneumoniae; assay: Antibacterial activity against Klebsiella pneumoniae ATCC10031 incubated for 18 hrs by serial broth microdilution method; assay type: functional
[20] = Acute toxicity in zebrafish embryo assessed as change in behavior upto 5 mM measured for 4 days; parameters: species or system Danio rerio; conditions: in vivo, 96 h, 5000 µM, time 4 day
[21] = target: DNA topoisomerase 2-alpha (Homo sapiens) (UniProt P11388); assay: Inhibition of human DNA topoisomerase II alpha assessed as residual activity at 100 uM using supercoiled pNO1 plasmid as substrate incubated for 30 mins by diamond dye staining based fluorescence microplate reader assay relative to control
[22] = tested on: THP-1; assay: Cytotoxicity against human THP-1 cells assessed as reduction in viability at 40 uM pretreated with PMA for 48 hrs followed by washout and compound addition for 5 days by resazurin sodium salt method; assay type: toxicity, cell-based; conditions: thp-1, 120 h, time 5 day
[23] = tested on: Bacteroides thetaiotaomicron; assay: Antibacterial activity against Bacteroides thetaiotaomicron DSM 2079 measured at 15 mins interval for 24 hrs by broth microdilution method; assay type: functional
[24] = Acute toxicity in zebrafish embryo assessed as effect on embryo survival upto 5 mM measured for 4 days; parameters: species or system Danio rerio; conditions: in vivo, 96 h, 5000 µM, time 4 day
[25] = target: DNA gyrase subunit A/DNA gyrase subunit B (Mycobacterium tuberculosis (strain ATCC 25618 / H37Rv), UniProt P9WG45+P9WG47); assay: Inhibition of Mycobacterium tuberculosis DNA gyrase using […] DNA as substrate incubated for 30 mins by gel based method; assay type: protein-complex assay
DNA gyrase subunit A/DNA gyrase subunit B, sequence (P9WG45 whole entry): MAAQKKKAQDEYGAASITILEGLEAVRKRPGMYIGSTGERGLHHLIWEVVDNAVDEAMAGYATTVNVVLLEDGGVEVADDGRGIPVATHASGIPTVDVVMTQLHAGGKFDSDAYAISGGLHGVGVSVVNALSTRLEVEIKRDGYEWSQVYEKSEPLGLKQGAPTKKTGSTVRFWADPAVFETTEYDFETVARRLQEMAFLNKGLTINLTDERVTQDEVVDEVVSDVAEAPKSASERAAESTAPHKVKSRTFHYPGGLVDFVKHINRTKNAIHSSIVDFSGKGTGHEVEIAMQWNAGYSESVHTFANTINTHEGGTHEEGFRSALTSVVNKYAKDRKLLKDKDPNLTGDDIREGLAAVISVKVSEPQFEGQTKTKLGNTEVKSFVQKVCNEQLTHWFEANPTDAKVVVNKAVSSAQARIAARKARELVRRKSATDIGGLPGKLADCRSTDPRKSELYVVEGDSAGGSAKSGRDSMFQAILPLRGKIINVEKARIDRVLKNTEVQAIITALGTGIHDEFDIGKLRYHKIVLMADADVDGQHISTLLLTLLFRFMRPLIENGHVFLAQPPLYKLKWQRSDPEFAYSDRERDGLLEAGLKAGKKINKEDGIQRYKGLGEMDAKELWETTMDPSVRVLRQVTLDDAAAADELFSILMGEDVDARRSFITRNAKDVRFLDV
DNA gyrase subunit A/DNA gyrase subunit B, sequence (P9WG47 whole entry): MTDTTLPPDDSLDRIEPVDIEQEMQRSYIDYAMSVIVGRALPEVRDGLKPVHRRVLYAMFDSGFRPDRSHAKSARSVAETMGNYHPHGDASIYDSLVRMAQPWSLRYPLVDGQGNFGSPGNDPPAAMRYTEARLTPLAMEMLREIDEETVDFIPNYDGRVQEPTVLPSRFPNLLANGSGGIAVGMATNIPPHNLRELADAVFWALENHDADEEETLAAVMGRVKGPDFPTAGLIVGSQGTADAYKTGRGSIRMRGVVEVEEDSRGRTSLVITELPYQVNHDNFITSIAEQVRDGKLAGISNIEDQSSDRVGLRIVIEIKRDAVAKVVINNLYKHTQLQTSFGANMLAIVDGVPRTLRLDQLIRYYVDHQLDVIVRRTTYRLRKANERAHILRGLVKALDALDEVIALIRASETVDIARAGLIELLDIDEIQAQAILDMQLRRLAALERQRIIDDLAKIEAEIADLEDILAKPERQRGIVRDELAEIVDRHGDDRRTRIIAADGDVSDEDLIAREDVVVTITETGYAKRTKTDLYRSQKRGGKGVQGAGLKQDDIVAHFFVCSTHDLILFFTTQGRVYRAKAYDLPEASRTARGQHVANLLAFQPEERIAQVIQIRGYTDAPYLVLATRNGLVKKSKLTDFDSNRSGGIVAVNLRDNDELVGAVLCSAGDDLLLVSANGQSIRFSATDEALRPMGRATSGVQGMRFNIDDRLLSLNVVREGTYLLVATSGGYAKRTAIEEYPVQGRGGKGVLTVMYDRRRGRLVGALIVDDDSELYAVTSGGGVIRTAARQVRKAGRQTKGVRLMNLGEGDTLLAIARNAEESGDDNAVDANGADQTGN

[26] = tested on: Acinetobacter baumannii; assay: Antibacterial activity against Acinetobacter baumannii ATCC17978 incubated for 18 hrs by serial broth microdilution method; assay type: functional
[27] = tested on: Staphylococcus aureus; assay: Antibacterial activity against Staphylococcus aureus ATCC 29213 incubated for 18 hrs by serial broth microdilution method; assay type: functional
[28] = tested on: Escherichia coli; assay: Antibacterial activity against Escherichia coli ATCC 25922 incubated for 18 hrs by serial broth microdilution method; assay type: functional
[29] = target: T1, hERG (KCNH2); assay: Inhibition of human ERG expressed in HEK293 cells at 10 uM by whole-cell patch clamp method relative to control; assay type: toxicity, cell-based; conditions: HEK293 cells that express hERG
[30] = tested on: Mycobacterium tuberculosis; assay: as §1, with “bacterial viability” for “increase in number of surviving macrophages”, “10” for “10 to 30”, “analysis (reference value: 100%)” for “analysis”; assay type: functional; conditions: time 4 day
[31] = tested on: Mycobacterium tuberculosis; assay: as §1, with “1” for “10”; assay type: functional, organism-based; conditions: dose 1-30 µM, time 4.0 day
[32] = Protein binding in human plasma assessed as free fraction at 10 uM incubated for 4 hrs by rapid equilibrium dialysis based LC-MS/MS method; assay type: ADME, cell-free
[33] = tested on: Enterobacter cloacae; assay: Antibacterial activity against Enterobacter cloacae ATCC13047 incubated for 18 hrs by serial broth microdilution method; assay type: functional
[34] = Protein binding in mouse plasma assessed as free fraction at 10 uM incubated for 4 hrs by rapid equilibrium dialysis based LC-MS/MS method; assay type: ADME, cell-free
[35] = Inhibition of Mycobacterium tuberculosis DNA gyrase B
[36] = tested on: Mycobacterium tuberculosis; assay: Antimycobacterial activity against Mycobacterium tuberculosis H37Rv ATCC 25618 assessed as reduction in viability at 5 uM incubated for 6 days by resazurin reduction microplate assay; assay type: functional; conditions: time 6.0 day

With Cc1[nH]c(C(=O)Nc2nc3c(OC(CN4CCC(N(C)C)CC4)c4ccccc4)cc(C(=O)O)cc3s2)c(Cl)c1Cl (stereo unspecified) the MIC90 [1] was 10 µM (≈ 6.17 µg/mL), the MIC90 [2] was 2.5 µM (≈ 1.54 µg/mL) and the MIC90 [3] was 5 µM (≈ 3.08 µg/mL).
In the case of Cc1[nH]c(C(=O)Nc2nc3c(OC(C)C4CCNCC4)cc(C(=O)O)cc3s2)c(Cl)c1Cl (stereo unspecified), the Activity [4] is reported as “Active”, the MIC90 [5] is reported as over 120 µM and the IC50 [6] is reported as 5.7 nM. It also gave an MIC [7] of over 20 µM, an MIC90 [8] of 2 µM (≈ 0.995 µg/mL) and an MIC90 [1] of 0.63 µM (≈ 0.313 µg/mL). For the same molecule, the Activity [9] was 96%, the Activity [10] was “Non-Toxic” and the inhibition at 50 µM [11] was 29%. For the same molecule, the IC50 [12] was under 10 nM, the Activity [13] was “Dose-Dependent Effect” and the solubility kinetic at 20 h, 100 µM [14] was 1 µM (≈ 0.497 µg/mL). It also gave an Activity [15] of 81%, an IC50 [16] of 99 nM and an MIC [17] of over 20 µM. The Activity [18] was “Non-Toxic”, the MIC90 [2] was 2.5 µM (≈ 1.24 µg/mL) and the MIC90 [19] was over 120 µM. For the same molecule, the Activity [20] was “Non-Toxic”, the Activity [21] was 96% and the Activity [22] was “Non-Toxic”. The MIC [23] was over 20 µM, the Activity [24] was “Non-Toxic” and the IC50 [25] was 4.1 nM. For the same molecule, the MIC90 [3] was 2.5 µM (≈ 1.24 µg/mL), the MIC90 [26] was over 120 µM and the MIC90 [27] was over 120 µM. It also gave an MIC90 [28] of over 120 µM and an inhibition at 10 µM [29] of 4.2%.
Work on NNC(=O)c1ccncc1 [ISONIAZID] yielded an Activity [30] of 4.9%.
With Cc1[nH]c(C(=O)Nc2nc3c(OC(C)CN(C)C)cc(C(=O)O)cc3s2)c(Cl)c1Cl (stereo unspecified) the Activity [31] was “inactive”, the MIC90 [5] was over 135 µM and the MIC [7] was over 20 µM. The MIC90 [8] was 2 µM (≈ 0.943 µg/mL), the MIC90 [1] was 2.5 µM (≈ 1.18 µg/mL) and the Activity [10] was “Non-Toxic”. The fraction unbound at 4 h, 10 µM [32] was 0.029, the Activity [13] was “Dose-Dependent Effect” and the solubility kinetic at 20 h, 100 µM [14] was 55 µM (≈ 25.9 µg/mL). The MIC [17] was over 20 µM, the Activity [18] was “Non-Toxic” and the MIC90 [2] was 0.63 µM (≈ 0.297 µg/mL). The MIC90 [19] was 8 µM (≈ 3.77 µg/mL), the Activity [20] was “Non-Toxic” and the Activity [22] was 34%. For the same molecule, the MIC90 [33] was over 135 µM, the MIC [23] was over 20 µM and the Activity [24] was “Non-Toxic”. For the same molecule, the fraction unbound at 4 h, 10 µM [34] was 0.047, the MIC90 [3] was 0.63 µM (≈ 0.297 µg/mL) and the MIC90 [26] was over 135 µM. The MIC90 [27] was over 135 µM and the MIC90 [28] was over 135 µM.
Cc1[nH]c(C(=O)Nc2nc3c(OC(CN(C)C)c4ccccc4)cc(C(=O)O)cc3s2)cc1F (stereo unspecified) gave an MIC90 [5] of 33 µM (≈ 15.9 µg/mL), an MIC90 [1] of 2.5 µM (≈ 1.21 µg/mL) and an Activity [9] of 99%. It also gave an MIC90 [2] of 0.31 µM (≈ 0.15 µg/mL), an MIC90 [19] of 2 µM (≈ 0.965 µg/mL) and an Activity [21] of 99%. For the same molecule, the MIC90 [33] was over 133 µM, the MIC90 [3] was 1.25 µM (≈ 0.603 µg/mL) and the MIC90 [26] was over 133 µM. The MIC90 [27] was 33 µM (≈ 15.9 µg/mL) and the MIC90 [28] was 133 µM (≈ 64.2 µg/mL).
With Cc1[nH]c(C(=O)Nc2nc3c(OCc4ccccc4)cc(C(=O)O)cc3s2)c(Cl)c1Cl the IC50 [35] was 5.1 nM and the Activity [36] was “inactive”.
Work on Cc1[nH]c(C(=O)Nc2nc3c(OC(CN4CC[N+](C)(C)CC4)c4ccccc4)cc(C(=O)O)cc3s2)c(Cl)c1Cl (stereo unspecified) yielded an MIC90 [1] of 0.31 µM, an MIC90 [2] of 0.63 µM and an MIC90 [3] of 0.32 µM. For the same molecule, the Activity [27] was “inactive”.
Cc1[nH]c(C(=O)Nc2nc3c(OC(CN4CCOCC4)C4CC4)cc(C(=O)O)cc3s2)cc1F (stereo unspecified) gave an MIC90 [5] of over 131 µM, an MIC90 [1] of over 20 µM and an MIC90 [2] of 1.25 µM (≈ 0.611 µg/mL). For the same molecule, the MIC90 [19] was 33 µM (≈ 16.1 µg/mL), the MIC90 [33] was over 131 µM and the MIC90 [3] was 2.5 µM (≈ 1.22 µg/mL). It also gave an MIC90 [26] of over 131 µM, an MIC90 [27] of 131 µM (≈ 64 µg/mL) and an MIC90 [28] of over 131 µM.
In the case of C[C@H]1COc2c(N3CCN(C)CC3)c(F)cc3c(=O)c(C(=O)O)cn1c23 [LEVOFLOXACIN ANHYDROUS], the Activity [30] is reported as 2.3%.
Work on Cc1[nH]c(C(=O)Nc2nc3c(OCC(C)N(C)C)cc(C(=O)O)cc3s2)c(Cl)c1Cl (stereo unspecified) yielded an MIC90 [1] of 40 µM (≈ 18.9 µg/mL), an MIC90 [2] of 0.63 µM (≈ 0.297 µg/mL) and an MIC90 [3] of 10 µM (≈ 4.71 µg/mL).
